Laboratory results as given in patent US20070218460A1, “Method of Estimating Toxicity of Drug” (TAKEDA PHARMACEUTICAL COMPANY LIMITED, priority 2003, published 2007).

Tests used:
[1] = tested on: HepG2 cells; assay: Electron-microscopic examination of PLsis induction potential (myelin-like structure)
Source text: Using 30 kinds of the following commercially available drugs as test compounds, the level of PLsis induction potential was examined with the emergence of an intracellular myelin-like structure or a structure having a high electron density, which is an early image thereof, as an index by electronmicroscopic observation.
HepG2 cells (purchased from ATCC) were exposed to the test compound by a conventional method. HepG2 cells used were of the cell growth phase. The attached HepG2 cells were washed twice with. Dulbecco's phosphate buffered saline (calcium and magnesium salt free; PBS(−))(Dainippon Pharmaceutical Co., Ltd.) containing 0.05 w/v % EDTA, detached with a cell dissociation solution of 0.25 vol % trypsin-1 mmol/L EDTA (Gibco BRL) diluted 2-fold with PBS(−), centrifuged to remove the supernatant, and adjusted to a concentration of 2×10^5 cells/250 μL with a culture medium [Dulbecco's modified Eagle medium (DMEM)(Gibco BRL) supplemented with 50 U/mL penicillin (Gibco BRL)-[…] streptomycin (Gibco BRL) and 5 vol % FBS (Bio whittaker)]. DMSO alone or a culture medium containing the above-mentioned test compound in DMSO solution was dispensed to a well by 250 μL, the above-mentioned cell suspension (250 μL) was added, and cultured in a CO2 incubator (7100; Napco) under an atmosphere of 5% CO2—95% air at 37° C.
After culture for 72 hr, the culture medium was removed, and the cells were fixed with 1 w/v % glutaraldehyde solution. After fixing with 2 w/v % osmic acid for 2 hr by a conventional method and dehydrating with an alcohol series, the cells were embedded in a resin (Quetol 812). Ultrathin slices were prepared and, after electron staining, observed with an electron microscope (H-300; Hitachi) and photographed in 3 or more pictures per each sample (magnification ×5000). The processing after post-fixation was performed by Applied Medical Research.

[2] = tested on: lss; assay: Real-time quantitative PCR of PLsis marker gene expression; type: cell-based, human; details: HepG2 cells, 24 hr exposure, relative value, control group = 1.0, GAPDH internal standard, n=3
Description: (§1) Using RNeasy Mini Kit (QIAGEN), total RNA was purified from the cells, and cDNA was synthesized in a 100 μL system using TaqMan Reverse Transcription Reagents (PE Applied Biosystems).
(§2) As the primer for glyceraldehyde-3-phosphoric acid dehydrogenase (GAPDH) and VIC labeled probe, those attached to TaqMan GAPDH Control Reagents (PE Applied Biosystems) were used.
(§3) Using 100 μL of the reaction mixture containing 5 μL of cDNA (1×TaqMan Universal PCR Master Mix (PE Applied Biosystems), 200 nM forward primer, 200 nM reverse primer and 200 nM TaqMan probe), 40 cycles of (1 cycle=95° C., 15 sec; 60° C., 1 min) PCR were performed. PCR and fluorescence detection were performed using ABI PRISM Sequence Detector 7000 (PE Applied Biosystems). As the internal standard, GAPDH was used to amend the measurement values. For the determination of significant difference, t-test was used (n=3).
(§4) For each test compound, the expression variation rate of 12 genes each relative to the control group was determined.

[3] = tested on: tagln; assay: as above; type: cell-based, human; details: HepG2 cells, 24 hr exposure, relative value, control group = 1.0, GAPDH internal standard, n=3
Description: as §1, §2, §3, §4

[4] = tested on: nr0b2; assay: as above; type: cell-based, human; details: HepG2 cells, 24 hr exposure, relative value, control group = 1.0, GAPDH internal standard, n=3
Description: as §1, §2, §3, §4

[5] = tested on: serpina3; assay: as above; type: cell-based, human; details: HepG2 cells, 24 hr exposure, relative value, control group = 1.0, GAPDH internal standard, n=3
Description: as §1, §2, §3, §4

[6] = tested on: slc2a3; assay: as above; type: cell-based, human; details: HepG2 cells, 24 hr exposure, relative value, control group = 1.0, GAPDH internal standard, n=3
Description: as §1, §2, §3, §4

[7] = tested on: mgc4171; assay: as above; type: cell-based, human; details: HepG2 cells, 24 hr exposure, relative value, control group = 1.0, GAPDH internal standard, n=3
Description: as §1, §2, §3, §4

[8] = tested on: fabp1; assay: as above; type: cell-based, human; details: HepG2 cells, 24 hr exposure, relative value, control group = 1.0, GAPDH internal standard, n=3
Description: as §1, §2, §3, §4

[9] = tested on: depp; assay: as above; type: cell-based, human; details: HepG2 cells, 24 hr exposure, relative value, control group = 1.0, GAPDH internal standard, n=3
Description: as §1, §2, §3, §4

[10] = tested on: hpn; assay: as above; type: cell-based, human; details: HepG2 cells, 24 hr exposure, relative value, control group = 1.0, GAPDH internal standard, n=3
Description: as §1, §2, §3, §4

[11] = tested on: asah1; assay: as above; type: cell-based, human; details: HepG2 cells, 24 hr exposure, relative value, control group = 1.0, GAPDH internal standard, n=3
Description: as §1, §2, §3, §4

[12] = tested on: kiaa1001; assay: as above; type: cell-based, human; details: HepG2 cells, 24 hr exposure, relative value, control group = 1.0, GAPDH internal standard, n=3
Description: as §1, §2, §3, §4

[13] = tested on: flj22362; assay: as above; type: cell-based, human; details: HepG2 cells, 24 hr exposure, relative value, control group = 1.0, GAPDH internal standard, n=3
Description: as §1, §2, §3, §4

[14] = tested on: HepG2 cells; assay: Highest concentration at which cells were viable after 72 hr exposure; type: cell-based, human

Compound	frequency of appearance of myelin-like structure [1]	expression variation rate lss [2]	expression variation rate tagln [3]	expression variation rate nr0b2 [4]	expression variation rate serpina3 [5]	expression variation rate slc2a3 [6]	expression variation rate mgc4171 [7]	expression variation rate fabp1 [8]	expression variation rate depp [9]	expression variation rate hpn [10]	expression variation rate asah1 [11]	expression variation rate kiaa1001 [12]	expression variation rate flj22362 [13]	addition concentration (highest concentration at which cells survived after 72 hr of culture) [14]
CC(C)NCC(O)c1ccc(NS(C)(=O)=O)cc1 (stereo not shown) [sotalol]	−	0.88	0.80	0.63	0.78	1.53	0.72	0.98	0.80	0.79	1.39	0.84	0.85	25 µmol/L
O=C(NCC1CCCCN1)c1cc(OCC(F)(F)F)ccc1OCC(F)(F)F (stereo not shown) [flecainide]	−	1.22	0.86	1.02	1.60	0.46	1.57	1.50	1.73	1.26	2.42	2.10	1.65	25 µmol/L
CCCCc1oc2ccccc2c1C(=O)c1cc(I)c(OCCN(CC)CC)c(I)c1 [amiodarone]	++	1.82	0.56	1.35	1.17	0.35	1.32	2.01	1.12	2.15	1.69	1.56	1.07	8.3 µmol/L
Cc1cc(NS(=O)(=O)c2ccc(N)cc2)no1 [sulfamethoxazole]	−	0.82	0.99	0.82	0.98	1.11	0.78	0.85	0.70	0.89	1.26	0.84	0.87	25 µmol/L
CNCCC(Oc1ccc(C(F)(F)F)cc1)c1ccccc1 (stereo not shown) [fluoxetine]	+++	3.51	0.20	2.70	1.73	0.09	1.34	2.80	3.08	2.39	6.55	1.93	2.15	8.3 µmol/L
CC(=O)N1CCN(c2ccc(OCC3COC(Cn4ccnc4)(c4ccc(Cl)cc4Cl)O3)cc2)CC1 (stereo not shown) [ketoconazole]	+	4.33	0.71	2.36	2.37	0.48	1.53	5.30	2.29	2.71	1.47	2.24	1.95	8.3 µmol/L
C[C@H]1COc2c(N3CCN(C)CC3)c(F)cc3c(=O)c(C(=O)O)cn1c23 [levofloxacin]	−	0.75	0.90	0.79	0.92	1.07	0.79	0.88	0.83	0.83	1.10	0.70	0.83	25 µmol/L
CC[C@H]1OC(=O)[C@H](C)[C@@H](O[C@H]2C[C@@](C)(OC)[C@@H](O)[C@H](C)O2)[C@H](C)[C@@H](O[C@@H]2O[C@H](C)C[C@H](N(C)C)[C@H]2O)[C@](C)(OC)C[C@@H](C)C(=O)[C@H](C)[C@@H](O)[C@]1(C)O [clarithromycin]	−	0.65	0.86	0.78	1.39	0.86	1.18	0.91	0.93	0.96	1.55	1.48	1.00	25 µmol/L
